In patent US20070161592A1, “Method of treating fear” (priority 2005, published 2007):

System: NMDAR-mediated currents in the hippocampus
Experiment: NMDAR-mediated EPSCs in hippocampal CA1 neurons
Type: cell-based, mouse
Conditions: hippocampus
Method: Coronal brain slices ([…]) from 6-8-week-old C57BL/6 mice, containing ACC or hippocampus, were prepared using standard methods (Wei et al., 2001). Slices were transferred to a submerged recovery chamber containing oxygenated (95% O2 and 5% CO2) artificial cerebrospinal fluid (ACSF) (in mM: 124 NaCl, 4.4 KCl, 2 CaCl2, 1 MgSO4, 25 NaHCO3, 1 NaH2PO4, 10 glucose) at room temperature for at least 1 h.
Experiments were performed in a recording chamber on the stage of an Axioskop 2FS microscope with infrared DIC optics for visualizing whole-cell patch clamp recordings. EPSCs were recorded from layer II-III neurons using an Axon 200B amplifier (Axon Instruments, CA) and stimulations were delivered using a bipolar tungsten stimulating electrode placed in layer V of the ACC. In hippocampal slices, EPSCs were evoked by stimulating the Schaffer collateral-commissural pathway. EPSCs were induced by repetitive stimulations at 0.02 Hz and neurons were voltage clamped at −70 mV. The recording pipettes (3-5 MΩ) were filled with solution containing (mM) 145 K-gluconate, 5 NaCl, 1 MgCl2, 0.2 EGTA, 10 HEPES, 2 Mg-ATP, and 0.1 Na3-GTP (adjusted to pH 7.2 with KOH). After obtaining stable EPSCs for 10 min, three kinds of LTP induction paradigms were used within 12 min after establishing the whole-cell configuration to prevent wash out effect on LTP induction (Tsvetkov et al., 2002). The first protocol involved paired presynaptic 80 pulses at 2 Hz with postsynaptic depolarization at +30 mV (referred to as pairing training). The second involved paired 3 presynaptic stimuli that caused 3 EPSPs (10 ms ahead) with 3 postsynaptic APs at 30 Hz, paired 15 times every 5 s (named as EPSPs-APs protocol). The third involved theta-burst stimulation (5 trains of burst with 4 pulses at 100 Hz, at 200 ms interval; repeated 4 times at intervals of 10 s; named as TBS). The NMDAR-mediated component of EPSCs was pharmacologically isolated in Mg^2+-free ACSF containing: CNQX (20 μM), glycine (1 μM) and picrotoxin (100 μM). The patch electrodes contained (in mM) 102 cesium gluconate, 5 TEA-chloride, 3.7 NaCl, 11 BAPTA, 0.2 EGTA, 20 HEPES, 2 MgATP, 0.3 NaGTP, and 5 QX-314 chloride (adjusted to pH 7.2 with CsOH). Neurons were voltage clamped at −60 mV and NMDARs-mediated EPSCs were evoked at 0.05 Hz. Picrotoxin (100 μM) was always present to block GABAA receptor-mediated inhibitory synaptic currents. The access resistance was 15-30 MΩ and was monitored throughout the experiment. Data were discarded if access resistance changed by more than 15% during an experiment. Results are expressed as means±SEM. Statistical comparisons were performed using the Student t-test.
One possible mechanism is that NR2B-containing receptors may contribute more to total NMDA currents in ACC synapses than in hippocampal synapses. […] Application of 0.1 μM or 0.4 μM NVP-AAM077 depressed total NMDAR-mediated currents by 59.0±4.3% (n=5) and 63.2±1.7% (n=6) in the ACC respectively (FIG. 5). On the other hand, application of 0.3 μM or 3 μM Ro25-6981 attenuated total NMDAR-mediated currents by 18.0±1.9% (n=5) and 18.1±3.4% (n=7) in the ACC respectively, showing that 0.3 μM Ro25-6981 was sufficient to block the NR2B-mediated currents (FIG. 5). This experiment was repeated in hippocampal CA1 neurons. […] However, unlike in the ACC, application of 0.3 μM Ro25-6981 alone potentiated, rather than blocked, total NMDAR-mediated currents by 51.3±16.4% in the hippocampus (FIG. 5).
The same experiment was repeated in the hippocampus.

## C[C@@H](CN1CCC(Cc2ccccc2)CC1)[C@@H](O)c1ccc(O)cc1 [Ro25-6981]
0.3 μM Ro25-6981 added to the same neuron after 0.4 μM NVP-AAM077
  further reduction of total NMDAR-mediated currents: 6.6±1.4%
0.3 μM alone
  potentiation of total NMDAR-mediated currents: 51.3±16.4%
Bath application, FIG. 5
  effect on total NMDAR-mediated currents: enhanced
